Assay results published in patent publication US9815851B2, “Pyrrolo carboxamides as modulators of orphan nuclear receptor RAR-related orphan receptor-gamma (RORγ, NR1F3) activity and for the treatment of chronic inflammatory and autoimmune diseases” (PHENEX PHARMACEUTICALS AG, priority 2011, dated 2017).
Like-named read-outs stand apart in the source and are kept apart here.

Tests used:
[1] = target: T1, RORγ ligand binding domain (LBD) (Homo sapiens, UniProt P51449); assay: TR-FRET Activity Assay (ligand sensing, RORγ-LBD / coactivator peptide interaction, LANCE); assay type: biochemical
T1 construct: made in house; host or cells: E. coli BL-21 (BL3), vector pDEST15
T1 sequence (P51449 269-508 limits assumed): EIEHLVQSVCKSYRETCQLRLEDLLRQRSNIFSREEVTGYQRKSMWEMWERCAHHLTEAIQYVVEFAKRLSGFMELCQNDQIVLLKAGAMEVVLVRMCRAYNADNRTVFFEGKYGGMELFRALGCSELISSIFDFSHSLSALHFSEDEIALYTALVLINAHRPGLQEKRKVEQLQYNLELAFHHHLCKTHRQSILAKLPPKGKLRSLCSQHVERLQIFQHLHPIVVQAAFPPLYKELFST

[2] = target: T2, RORγ (UniProt P51449); assay: RORγ Gal4 Reporter Gene Assay in 293T cells (firefly and renilla luciferase); assay type: cell-based, human
T2 sequence (P51449 1-518): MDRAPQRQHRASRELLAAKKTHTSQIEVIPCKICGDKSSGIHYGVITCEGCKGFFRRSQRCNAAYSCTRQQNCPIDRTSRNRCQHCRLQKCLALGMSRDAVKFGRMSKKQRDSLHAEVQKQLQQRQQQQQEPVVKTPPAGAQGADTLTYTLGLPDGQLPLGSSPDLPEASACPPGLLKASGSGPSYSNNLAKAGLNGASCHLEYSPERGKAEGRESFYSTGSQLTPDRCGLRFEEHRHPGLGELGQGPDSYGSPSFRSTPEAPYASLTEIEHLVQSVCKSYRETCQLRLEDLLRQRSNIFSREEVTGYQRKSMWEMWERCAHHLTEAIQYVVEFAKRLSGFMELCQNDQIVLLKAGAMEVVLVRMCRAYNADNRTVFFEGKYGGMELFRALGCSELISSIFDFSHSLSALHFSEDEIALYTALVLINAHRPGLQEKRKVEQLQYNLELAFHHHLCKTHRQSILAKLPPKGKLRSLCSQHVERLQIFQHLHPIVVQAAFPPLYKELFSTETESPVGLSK

[3] = first value of the cell FRET/FF/REN, TR-FRET activity assay, read-out: pIC50 (FRET) (converted)
[4] = second value of the cell, Gal4 reporter gene assay in 293T cells, firefly luciferase
[5] = third value of the cell, Gal4 reporter gene assay in 293T cells, renilla normalised luciferase

SMILES	IC50 [1, 3]	pIC50 (FF) [2, 4]	pIC50 (REN) [2, 5]	IC50 [1]	pIC50 (FF) [2]	pIC50 (REN) [2]
Cc1c(C(=O)NCC2(O)CCOCC2)cc(-c2cc(C(C)(C)C)cc(C3(C)CC3)c2)n1CC1CCCCC1 [17/64]	316 nM	7.8	7.7	–	–	–
Cc1c(C(=O)NC2COC2)cc(-c2cnc(NCC(C)(C)C)c(C(F)(F)F)c2)n1CC1CCCCC1 [9/12]	1580 nM	6.3	6.5	–	–	–
Cc1c(C(=O)NC2CCOCC2)cc(-c2cc(C(F)(F)F)c3c(c2)C(C)(C)C(=O)N3C)n1CC1CCCCC1 [17/148]	794 nM	7.0	7.0	–	–	–
Cc1c(C(=O)NCC(C)(C)C(=O)O)cc(-c2cc(C(=O)NC(C)(C)C)cc(C(C)(C)C)c2)n1CC1CCCCC1 [17/329]	2510 nM	6.8	6.9	–	–	–
CC(C)(C)NS(=O)(=O)c1ccc(-c2c(Cl)c(C(=O)NC3CCOCC3)c(Cl)n2CC2CCCCC2)c2ccccc12 [Example 23, 5-(4-(N-(tert-Butyl)sulfamoyl)naphthalen-1-yl)-2,4-dichloro-1-(cyclohexylmethyl)-N-(tetrahydro-2H-pyran-4-yl)-1H-pyrrole-3-carboxamide]	–	–	–	200 nM	6.7/8.5/8.5	6.7/8.5/8.5
CC(C)(C)NS(=O)(=O)c1ccc(-c2cc(C(=O)NC3CCOCC3)c(F)n2CC2CCCCC2)cc1C(C)(C)C [Example 20, 5-(3-(tert-Butyl)-4-(N-(tert-butyl)sulfamoyl)phenyl)-1-(cyclohexylmethyl)-2-fluoro-N-(tetrahydro-2H-pyran-4-yl)-1H-pyrrole-3-carboxamide]	398 nM	7.4	7.5	–	–	–
Cc1c(C(=O)NC2CCOCC2)cc(-c2ccc(S(=O)(=O)NC(C)(C)C(F)(F)F)c(C(F)(F)F)c2)n1CC1CCCCC1 [17/160]	–	–	–	200 nM	6.7/7.8/8.0	6.7/7.8/8.0
Cc1c(C(=O)NCC(C)(C)C(=O)NCCCO)cc(-c2cc(C(C)(C)C)c3c(c2)C2(CCO3)CC2)n1CC1CCCCC1 [11/6]	251 nM	8.0	8.2	–	–	–
Cc1c(C(=O)NC[C@H]2CCCO2)cc(-c2cc(C(C)(C)C)c3c(c2)C2(CCO3)CC2)n1CC1CCCCC1 [17/5]	316 nM	6.4	6.4	–	–	–
Cc1c(C(=O)NC2COC2)cc(-c2cc(C(C)(C)C)cc(C(C)(C)C)c2)n1S(=O)(=O)N1CCC2(CCCC2)C1 [7/6]	398 nM	6.6	6.5	–	–	–
Cc1c(C(=O)NC23CCC(C(=O)O)(CC2)CC3)cc(-c2cc(C(C)(C)O)cc(C3(C)CC3)c2)n1CC1CCCCC1 [17/302]	1580 nM	7.3	7.2	–	–	–
Cc1c(C(=O)NC2(C#N)CC2)cc(-c2cc(C(C)(C)C)cc(C(C)(C)C)c2)n1CC1CCCCC1 [1/12]	1260 nM	6.4	6.5	–	–	–
Cc1c(C(=O)NCCC(C)(C)C(=O)O)cc(-c2cc(C(C)(C)C)cc(C3(C)CC3)c2)n1CC1CCCCC1 [17/73]	1000 nM	7.2	7.3	–	–	–
COC(=O)C(C)(C)CCNC(=O)c1cc(-c2cc(C(C)(C)C)cc(C3(C)CC3)c2)n(CC2CCCCC2)c1C [17/153]	316 nM	6.7	6.7	–	–	–
Cc1c(S(=O)(=O)NC(C)(C)C)ccc(-c2cc(C(=O)NCC(C)(C)C(N)=O)c(C)n2CC2CCCCC2)c1Cl [17/371]	631 nM	8.0	8.0	–	–	–
Cc1c(C(=O)NCCc2noc(=O)[nH]2)cc(-c2ccc(S(=O)(=O)NC(C)(C)C)c(C(C)(C)C)c2)n1CC1CCCCC1 [17/331]	1260 nM	6.6	6.5	–	–	–
Cc1c(C(=O)NCC(C)(C)C(=O)O)cc(-c2cc(C(=O)NC(C)(C)C)cc(C3(C)CC3)c2)n1CC1CCCCC1 [17/338]	3160 nM	7.2	7.2	–	–	–

SMILES	IC50 [1, 3]	pIC50 (FF) [2, 4]	pIC50 (REN) [2, 5]	IC50 [1]	pIC50 (FF) [2]	pIC50 (REN) [2]
Cc1c(C(=O)NCCC(C)(C)C(=O)O)cc(-c2ccc(S(=O)(=O)NC(C)(C)C)c(C(F)F)c2)n1CC1CCCCC1 [17/130]	251 nM	7.5	7.6	–	–	–
Cc1c(C(=O)NCCC(=O)O)cc(-c2cc(C(C)(C)C)cc(C(C)(C)C)c2)n1CC1CCCCC1 [1/68]	1580 nM	6.7	6.8	–	–	–
Cc1c(C(=O)N[C@@H]2CCCOC2)cc(-c2ccc(S(=O)(=O)NC(C)(C)C)c(C(F)(F)F)c2)n1CC1CCCCC1 [17/138]	200 nM	7.1	7.3	–	–	–
Cc1c(C(=O)N[C@H]2C[C@H](C(=O)O)C2)cc(-c2cc(C(=O)NC(C)(C)C(F)(F)F)cc(C3(C)CC3)c2)n1CC1CCCCC1 [17/360]	6310 nM	7.3	7.4	–	–	–
Cc1noc2ccc(-c3cc(C(N)=O)c(C)n3CC3CCCCC3)cc12 [1/49]	31600 nM	6.2	6.6	–	–	–
Cc1c(C(=O)NC2CCNC(=O)C2)cc(-c2ccc(S(=O)(=O)NC(C)(C)C)c(C(C)(C)C)c2)n1CC1CCCCC1 (stereo not drawn) [17/89]	1580 nM	6.9	6.9	–	–	–
Cc1c(C(=O)NCC2CC2)cc(-c2cc(C(C)(C)C)c3c(c2)C2(CCO3)CC2)n1CC1CCCCC1 [1/102]	501 nM	6.4	6.4	–	–	–
Cc1c(C(=O)N(C)C2CCOCC2)cc(-c2ccc(S(=O)(=O)NC(C)(C)C)c(C(C)(C)C)c2)n1CC1CCCCC1 [17/95]	631 nM	7.8	7.7	–	–	–
Cc1c(C(=O)NC2CCOCC2)cc(-c2cc(Cl)cc(C(=O)NC(C)(C)C)c2)n1CC1CCCCC1 [17/219]	501 nM	6.9	7.0	–	–	–
Cc1c(C(=O)NCCCCCO)cc(-c2cc(C(C)(C)C)cc(C(C)(C)C)c2)n1CC1CCCCC1 [1/67]	158 nM	7.2	7.3	–	–	–
Cc1c(C(=O)NC2CCOCC2)cc(-c2ccc(S(=O)(=O)NC3CCC3)c(C(C)(C)C)c2)n1CC1CCCCC1 [17/228]	398 nM	7.7	7.7	–	–	–
Cc1c(C(=O)N[C@H]2C[C@@H](C(=O)O)C2)cc(-c2cc(C(C)(C)C)c3c(c2)C2(CCO3)CC2)n1CC1CCCCC1 [17/56]	12600 nM	6.4	6.4	–	–	–
Cc1c(C(=O)N[C@H]2C[C@H](C(=O)O)C2)cc(-c2cc(Cl)cc(C3(C)CC3)c2)n1CC1CCCCC1 [17/299]	5010 nM	7.1	7.5	–	–	–
Cc1c(C(=O)NCC2(O)COC2)cc(-c2cc(C(C)(C)C)c3c(c2)C2(CCO3)CC2)n1CC1CCCCC1 [17/36]	794 nM	6.9	6.9	–	–	–
Cc1c(C(=O)N[C@H]2C[C@H](C(=O)O)C2)cc(-c2cc(OC(F)(F)F)cc(C3(C)CC3)c2)n1CC1CCCCC1 [17/350]	1000 nM	7.7	7.7	–	–	–
Cc1c(C(=O)NCC(C)(C)NS(=O)(=O)C2CC2)cc(-c2cc(C(C)(C)C)c3c(c2)C2(CCO3)CC2)n1CC1CCCCC1 [17/33]	631 nM	7.1	7.2	–	–	–
